Test results taken from patent US20220401617A1, “ADHESIVE COMPOSITIONS COMPRISING THERAPEUTICS” (RevBio, Inc., priority 2019, published 2022).
Where a name gives a salt, the structure may show the parent alone.

Assays:
[1] = assay type: physicochemical
Protocol: Several formulations of compositions comprising pain relievers (e.g., locally acting analgesics (e.g., naproxen and diclofenac) or local anesthetics (e.g. bupivacaine and articaine) were investigated for their affinity to the adhesive composition. The affinity of the therapeutic depends on the nature of the therapeutic and its interaction with the composition. This is measured as the partition coefficient which is the ratio of the amount of drug released from the composition to the ratio of the amount of drug retained in the composition under specific conditions.
The specific composition (e.g., adhesive composition) comprised 400 mg tetracalcium phosphate, 250 mg phosphoserine (a compound in FIG. 1V-a), and 135 μl of water that was prepared by mixing for 30 seconds, after which the mixture was formed into standard spherical substrates and allowed to cure. The substrate was then crushed using a mortar and pestle and used as a control. For the composition comprising a therapeutic, 1% w/w of the therapeutic was added to the tetracalcium phosphate and phosphoserine powder blend. The therapeutic was thoroughly mixed with tetracalcium phosphate and phosphoserine, after which deionized water was added and mixed for 30 seconds. Standard spherical substrates approximately 8 mm in diameter of adhesive composition were prepared. After curing, the substrate was crushed using mortar and pestle and the samples were incubated in 50 mL 1× PBS solution for 18 hours at 37° C. The partition coefficient of the therapeutic was evaluated using high-pressure liquid chromatography (HPLC) as shown in Table 3 below.

[2] = 8% w/w naproxen, ssNMR
[3] = Properties of exemplary adhesive compositions (compound + tetra-calcium phosphate + water); assay type: physicochemical; conditions: mixed with tetra-calcium phosphate and water
Protocol: Exemplary adhesive compositions were prepared by providing the compounds listed in Table 1 and tetra-calcium phosphate in a suitable receptacle and mixing with water to achieve the desired consistency. While water was used as the aqueous medium in the present compositions, the aqueous medium may instead be blood, saliva, serum, or a blood-based solution or suspension. In the present compositions, the solid components (compounds, tetra-calcium phosphate) were provided as particles. However, the solid components listed in the table may be provided in particle, granule, or fiber form, and the size of each of the components may vary as described in the Detailed Description. In some embodiments, the resulting properties, such as working and setting time, may be affected by these changes. The specific mean particle, granule, or fiber size for each solid component was selected to satisfy the use requirements as described in each of the embodiments.
The compounds comprising glyphosine, O-Phospho-L-serine (OPLS), […] […] After mixing, the compositions described were applied to the desired site and the adhesive properties examined, e.g., for tensile strength and durability.

[4] = Retention/elution of gentamicin from adhesive composition matrix (HPLC); assay type: physicochemical; conditions: 2.5% w/w or 5% w/w gentamicin, PBS, 37° C., 10 days incubation
Protocol: Several formulations of compositions comprising antibiotics (AB) were investigated. The retention of the AB within the compositions may avoid or prevent bacterial colonization on or within the cured adhesive composition or any post-operative infection that could develop. The retention study was analyzed using elution studies, wherein high-pressure liquid chromatography (HPLC) was used to analyze the amount of AB released over time. Particularly, the elution profile of gentamicin from adhesive composition matrix was analyzed at days 1, 3, 5 and 10.
Several compositions were tested by adding either 2.5% w/w or 5% w/w of gentamicin to the tetracalcium phosphate and phosphoserine powder blend. Each cylinder was immersed in a polypropylene tube with 5 ml phosphate buffered saline (PBS) and shaken in a rotator at 37° C. Over the study period of 10 days, daily transfer of the cement cylinder into a test tube with PBS was conducted after saline washings. Elution samples of PBS was collected at various time points over a period of 10 days. The control was adhesive composition with no gentamicin, and the standard was different concentration of gentamicin alone.

[5] = Release of bupivacaine from porous adhesive composition formulation (HPLC elution); assay type: physicochemical; conditions: 10% w/w drug, 50 mL 1x PBS, 7-day period, 37° C.
Protocol: Several formulations of compositions comprising pain relievers (e.g., local anesthetics (e.g. bupivacaine)) were investigated. […] The release study was analyzed using elution studies, where HPLC was used to analyze the amount of pain reliever released over time. The elution profile of bupivacaine from a porous adhesive composition matrix was analyzed over a 7-day period.
The particle size of calcium carbonate was between 15 nm to 40 nm. This formulation was used a control for the study. […] A bupivacaine formulation was tested by adding 10% w/w of the drug to the tetracalcium phosphate and phosphoserine powder blend. Standard spherical substrates of approximately 8 mm in diameter of porous adhesive bone regenerative were prepared. After curing, the samples were incubated in 50 mL 1× PBS solution for 7-days at 37° C.

Compound | Partition coefficient [1] | Properties of the adhesive composition prepared with the compound [3] | further results
CC(C)Cc1ccc(C(C)C(=O)O)cc1 (stereo not drawn) [Ibuprofen] | 0 | – | –
COc1ccc2cc([C@H](C)C(=O)O)ccc2c1 [Naproxen] | – | – | Elution of naproxen from the adhesive composition ([2]; crushed, 10 mL 1x PBS, 4-days, 37° C.): almost fully eluted; Modification of chemical structure upon inclusion in the adhesive composition [2]: no modification of the naproxen chemical structure
O=P(O)(O)CN(CP(=O)(O)O)CP(=O)(O)O [aminotris(methylenephosphonic acid), (Nitrilotris(methylene)) triphosphonic acid] | – | injectable, adhesive, tacky, and self-setting | –
O=C(O)CN(CCN(CC(=O)O)CC(=O)O)CC(=O)O [ethylenediaminetetraacetic acid, Ethylenediamine tetraacetic acid] | – | injectable, adhesive, tacky, and self-setting | –
O=C(O)Cc1ccccc1Nc1c(Cl)cccc1Cl [Diclofenac•Na] | 0.103 | – | –
gentamicin | – | – | Retention of gentamicin in the adhesive composition [4]: most of gentamicin was retained
O=C(O)CN(CP(=O)(O)O)CP(=O)(O)O [glyphosine, N,N-Bis(phosphonomethyl)glycine] | – | injectable, adhesive, tacky, and self-setting | –
N[C@@H](COP(=O)(O)O)C(=O)O [O-Phospho-L-serine, O-Phospho-L-Serine] | – | injectable, adhesive, tacky, and self-setting | –
CC(=O)Oc1ccccc1C(=O)O [Aspirin] | 0.61 | – | –
CCCCN1CCCCC1C(=O)Nc1c(C)cccc1C (stereo not drawn) [Bupivacaine•HCl] | 0.37 | – | % bupivacaine release, porous vs non-porous formulation [5]: remarkable increase
